Test results from patent US5565440A, “Methane diphosphonic acid derivative, its production process and its pharmaceutical applications” (Toray Industries, Inc., priority 1992, dated 1996).

System: adjuvant arthritis
Test: Adjuvant Arthritis Test
Assay type: in vivo, Lewis female rats
Conditions: 8th to 21st day; for Swelling inhibition rate with respect to control group, 14th day, Left / Swelling inhibition rate with respect to control group, 21st day, Left: left hind limb (adjuvant-injected); for Swelling inhibition rate with respect to control group, 14th day, Right / Swelling inhibition rate with respect to control group, 21st day, Right: right hind limb; for Bone destruction inhibition rate with respect to control group: soft X-ray score, 22nd day

CC1(C)CC(CC(O)(P(=O)(O)O)P(=O)(O)O)c2ccccc2S1 (centres unmarked) [Example 2, Monosodium 2-[4-(2,2-dimethylthiochromanyl)]-1-hydroxyethane-1,1-diphosphonate]
Swelling inhibition rate with respect to control group, 14th day, Left (20 mg/kg s.c. daily): 59.6% | Swelling inhibition rate with respect to control group, 21st day, Left (20 mg/kg s.c. daily): 75.3% | Swelling inhibition rate with respect to control group, 14th day, Right (20 mg/kg s.c. daily): 8.0% | Swelling inhibition rate with respect to control group, 21st day, Right (20 mg/kg s.c. daily): 16.5% | Bone destruction inhibition rate with respect to control group (20 mg/kg s.c. daily): 80.4%

O=P(O)(O)C(O)(CC1CCSc2ccc(Cl)cc21)P(=O)(O)O (centres unmarked) [Example 4, Monosodium 2-[4-(6-chlorothiochromanyl)]-1-hydroxyethane-1,1-diphosphonate]
Swelling inhibition rate with respect to control group, 14th day, Left (3 mg/kg s.c. daily): 55.5% | Swelling inhibition rate with respect to control group, 21st day, Left (3 mg/kg s.c. daily): 93.0% | Swelling inhibition rate with respect to control group, 14th day, Right (3 mg/kg s.c. daily): 32.4% | Swelling inhibition rate with respect to control group, 21st day, Right (3 mg/kg s.c. daily): 37.7% | Bone destruction inhibition rate with respect to control group (3 mg/kg s.c. daily): 52.7%

O=P(O)(O)C(O)(CC1CCSc2ccccc21)P(=O)(O)O (centres unmarked) [Example 6, Monosodium 2-(4-thiochromanyl)-1-hydroxyethane-1,1-diphosphonate]
Swelling inhibition rate with respect to control group, 14th day, Left (3 mg/kg s.c. daily): 26.1% | Swelling inhibition rate with respect to control group, 21st day, Left (3 mg/kg s.c. daily): 62.0% | Swelling inhibition rate with respect to control group, 14th day, Right (3 mg/kg s.c. daily): 27.2% | Swelling inhibition rate with respect to control group, 21st day, Right (3 mg/kg s.c. daily): 35.9% | Bone destruction inhibition rate with respect to control group (3 mg/kg s.c. daily): 38.5%

O=P(O)(O)C(O)(CC1CCSc2c(Cl)cccc21)P(=O)(O)O (centres unmarked) [Example 8]
Swelling inhibition rate with respect to control group, 14th day, Left (3 mg/kg s.c. daily): 52.6% | Swelling inhibition rate with respect to control group, 21st day, Left (3 mg/kg s.c. daily): 84.1% | Swelling inhibition rate with respect to control group, 14th day, Right (3 mg/kg s.c. daily): 0.1% | Swelling inhibition rate with respect to control group, 21st day, Right (3 mg/kg s.c. daily): 37.5% | Bone destruction inhibition rate with respect to control group (3 mg/kg s.c. daily): 52.3%

CCc1cccc2c1SCCC2CC(O)(P(=O)(O)O)P(=O)(O)O (centres unmarked) [Example 10, Disodium 2-[4-(8-ethylthiochromanyl)]-1-hydroxyethane-1,1-diphosphonate]
Swelling inhibition rate with respect to control group, 14th day, Left (3 mg/kg s.c. daily): 38.1% | Swelling inhibition rate with respect to control group, 21st day, Left (3 mg/kg s.c. daily): 62.5% | Swelling inhibition rate with respect to control group, 14th day, Right (3 mg/kg s.c. daily): 19.5% | Swelling inhibition rate with respect to control group, 21st day, Right (3 mg/kg s.c. daily): 33.9% | Bone destruction inhibition rate with respect to control group (3 mg/kg s.c. daily): 23.9%

COc1cccc2c1SCCC2CC(O)(P(=O)(O)O)P(=O)(O)O (centres unmarked) [Example 12]
Swelling inhibition rate with respect to control group, 14th day, Left (3 mg/kg s.c. daily): 35.4% | Swelling inhibition rate with respect to control group, 21st day, Left (3 mg/kg s.c. daily): 60.1% | Swelling inhibition rate with respect to control group, 14th day, Right (3 mg/kg s.c. daily): 0.2% | Swelling inhibition rate with respect to control group, 21st day, Right (3 mg/kg s.c. daily): 24.2% | Bone destruction inhibition rate with respect to control group (3 mg/kg s.c. daily): 26.2%

CSc1cccc2c1SCCC2CC(O)(P(=O)(O)O)P(=O)(O)O (centres unmarked) [Example 14, Disodium 2-[4-(8-methylthiothiochromanyl)]-1-hydroxyethane-1,1-diphosphonate]
Swelling inhibition rate with respect to control group, 14th day, Left (3 mg/kg s.c. daily): 53.9% | Swelling inhibition rate with respect to control group, 21st day, Left (3 mg/kg s.c. daily): 80.0% | Swelling inhibition rate with respect to control group, 14th day, Right (3 mg/kg s.c. daily): 2.9% | Swelling inhibition rate with respect to control group, 21st day, Right (3 mg/kg s.c. daily): 31.0% | Bone destruction inhibition rate with respect to control group (3 mg/kg s.c. daily): 46.9%
